Earlier results on one compound are cited in PubChem BioAssay AID1259409 (Chemical Carcinogenesis Research Information System (CCRIS), 2018).

The data set relates to rodent chemically induced tumor inhibition, incidence and multiplicity. The experiment in a line: CCRIS tumor inhibitor studies. The settings on record: 64091-91-4, Promoter: NONE USED. From the text:
The CCRIS database contains chemical records with carcinogenicity, mutagenicity, tumor promotion, and tumor inhibition test results. It was developed by the National Cancer Institute (NCI). Data are derived from studies cited in primary journals, current awareness tools, NCI reports, and other sources. Test results have been reviewed by experts in carcinogenesis and mutagenesis.
CCRIS provides historical information from the years 1985 - 2011. It is no longer updated.
This is an archive assay for CCRIS tumor inhibitor studies.

Regarding `S=C=NCCc1ccccc1`, the “tumour outcome (control, treated, inhibition, significance)” value runs as follows: (Carcinogen: 4-(METHYLNITROSAMINO)-1-(3-PYRIDYL)-1-BUTANONE, Dose [Inhibitor]: 3 UMOL/G DIET BEGINNING 1 WK PRIOR TO FIRST CARCINOGEN DOSE (STUDY DURATION: 104 WK), Route [Inhibitor]: ORAL, Species: RAT, Strain/Sex: F344/MALE, Target Tissue: Type of Lesion: HEMATOPOIETIC SYSTEM: LEUKEMIA OR LYMPHOMA, Dose [Carcinogen]: 1.76 MG/KG 3/WK FOR 20 WK) 5/40 (13%), 3/40 (8%), 38%, not calculated; (Carcinogen: 4-(METHYLNITROSAMINO)-1-(3-PYRIDYL)-1-BUTANONE, Dose [Inhibitor]: 3 UMOL/G DIET BEGINNING 1 WK PRIOR TO FIRST CARCINOGEN DOSE (STUDY DURATION: 104 WK), Route [Inhibitor]: ORAL, Species: RAT, Strain/Sex: F344/MALE, Target Tissue: Type of Lesion: LUNG: ADENOMA OR CARCINOMA, Dose [Carcinogen]: 1.76 MG/KG 3/WK FOR 20 WK) 32/40 (80%), 17/40 (43%), 46%, p<0.05; (Carcinogen: 4-(METHYLNITROSAMINO)-1-(3-PYRIDYL)-1-BUTANONE, Dose [Inhibitor]: 3 UMOL/G DIET BEGINNING 1 WK PRIOR TO FIRST CARCINOGEN DOSE (STUDY DURATION: 104 WK), Route [Inhibitor]: ORAL, Species: RAT, Strain/Sex: F344/MALE, Target Tissue: Type of Lesion: LUNG: ADENOMA OR HEPATOCELLULAR CARCINOMA, Dose [Carcinogen]: 1.76 MG/KG 3/WK FOR 20 WK) 15/40 (38%), 14/40 (35%), 8%, not calculated; (Carcinogen: 4-(METHYLNITROSAMINO)-1-(3-PYRIDYL)-1-BUTANONE, Dose [Inhibitor]: 3 UMOL/G DIET BEGINNING 1 WK PRIOR TO FIRST CARCINOGEN DOSE (STUDY DURATION: 104 WK), Route [Inhibitor]: ORAL, Species: RAT, Strain/Sex: F344/MALE, Target Tissue: Type of Lesion: MAMMARY GLAND: ADENOCARCINOMA OR FIBROADENOMA OR FIBROMA, Dose [Carcinogen]: 1.76 MG/KG 3/WK FOR 20 WK) 5/40 (13%), 0/40 (0%), 100%, not calculated; (Carcinogen: 4-(METHYLNITROSAMINO)-1-(3-PYRIDYL)-1-BUTANONE, Dose [Inhibitor]: 3 UMOL/G DIET BEGINNING 1 WK PRIOR TO FIRST CARCINOGEN DOSE (STUDY DURATION: 104 WK), Route [Inhibitor]: ORAL, Species: RAT, Strain/Sex: F344/MALE, Target Tissue: Type of Lesion: NASAL CAVITY: SQUAMOUS CELL PAPILLOMA OR TRANSITIONAL-CELL PAPILLOMA OR POLYP OR SQUAMOUS CELL CARCINOMA, Dose [Carcinogen]: 1.76 MG/KG 3/WK FOR 20 WK) 11/40 (28%), 7/40 (18%), 36%, not calculated; (Carcinogen: 4-(METHYLNITROSAMINO)-1-(3-PYRIDYL)-1-BUTANONE, Dose [Inhibitor]: 3 UMOL/G DIET BEGINNING 1 WK PRIOR TO FIRST CARCINOGEN DOSE (STUDY DURATION: 104 WK), Route [Inhibitor]: ORAL, Species: RAT, Strain/Sex: F344/MALE, Target Tissue: Type of Lesion: PANCREAS: EXOCRINE ADENOCARCINOMA OR EXOCRINE ADENOMA, Dose [Carcinogen]: 1.76 MG/KG 3/WK FOR 20 WK) 1/40 (3%), 5/40 (13%), -333%, not calculated. The “tumour outcome (control, treated, inhibition, significance)” value runs as follows: (Carcinogen: 4-(METHYLNITROSAMINO)-1-(3-PYRIDYL)-1-BUTANONE, Dose [Inhibitor]: 3 UMOL/G DIET BEGINNING 1 WK PRIOR TO FIRST CARCINOGEN DOSE (STUDY DURATION: 104 WK), Route [Inhibitor]: ORAL, Species: RAT, Strain/Sex: F344/MALE, Target Tissue: Type of Lesion: PERITONEUM: MESOTHELIOMA, Dose [Carcinogen]: 1.76 MG/KG 3/WK FOR 20 WK) 1/40 (3%), 2/40 (5%), -67%, not calculated; (Carcinogen: 4-(METHYLNITROSAMINO)-1-(3-PYRIDYL)-1-BUTANONE, Dose [Inhibitor]: 3 UMOL/G DIET BEGINNING 1 WK PRIOR TO FIRST CARCINOGEN DOSE (STUDY DURATION: 104 WK), Route [Inhibitor]: ORAL, Species: RAT, Strain/Sex: F344/MALE, Target Tissue: Type of Lesion: STOMACH: SARCOMA OR PAPILLOMA, Dose [Carcinogen]: 1.76 MG/KG 3/WK FOR 20 WK) 5/40 (13%), 2/40 (5%), 62%, not calculated; (Carcinogen: 4-(METHYLNITROSAMINO)-1-(3-PYRIDYL)-1-BUTANONE, Dose [Inhibitor]: 3 UMOL/G DIET BEGINNING 1 WK PRIOR TO FIRST CARCINOGEN DOSE (STUDY DURATION: 104 WK), Route [Inhibitor]: ORAL, Species: RAT, Strain/Sex: F344/MALE, Target Tissue: Type of Lesion: TESTES: TUMOR, Dose [Carcinogen]: 1.76 MG/KG 3/WK FOR 20 WK) 31/40 (78%), 31/40 (78%), 0%; (Carcinogen: 4-(METHYLNITROSAMINO)-1-(3-PYRIDYL)-1-BUTANONE, Dose [Inhibitor]: 3 UMOL/G DIET BEGINNING 1 WK PRIOR TO FIRST CARCINOGEN DOSE (STUDY DURATION: 104 WK), Route [Inhibitor]: ORAL, Species: RAT, Strain/Sex: F344/MALE, Target Tissue: Type of Lesion: THYROID: MALIGNANT TUMOR OR BENIGN TUMOR, Dose [Carcinogen]: 1.76 MG/KG 3/WK FOR 20 WK) 1/40 (3%), 3/40 (8%), -166%, not calculated; (Carcinogen: 4-(METHYLNITROSAMINO)-1-(3-PYRIDYL)-1-BUTANONE, Dose [Inhibitor]: 5 UMOL/D FOR 4 CONSECUTIVE DAYS (STUDY DURATION: 16 WK), Route [Inhibitor]: GAVAGE, Species: MOUSE, Strain/Sex: STRAIN-A/FEMALE, Target Tissue: Type of Lesion: LUNG: ADENOMA, Dose [Carcinogen]: 10 UMOL ONCE 2 HR POST LAST AGENT DOSE) 30/30 (100%), 18/20 (89%), 11%, not calculated; (Carcinogen: 4-(METHYLNITROSAMINO)-1-(3-PYRIDYL)-1-BUTANONE, Dose [Inhibitor]: 25 UMOL/D FOR 4 CONSECUTIVE DAYS (STUDY DURATION: 16 WK), Route [Inhibitor]: GAVAGE, Species: MOUSE, Strain/Sex: STRAIN-A/FEMALE, Target Tissue: Type of Lesion: LUNG: ADENOMA, Dose [Carcinogen]: 10 UMOL ONCE 2 HR POST LAST AGENT DOSE) 30/30 (100%), 6/20 (30%), 70%, p<0.01. The “tumour outcome (control, treated, inhibition, significance)” value is, setting by setting: (Carcinogen: 4-(N-NITROSOMETHYLAMINO)-1-(3-PYRIDYL)-1-BUTANONE, Dose [Inhibitor]: 0, 3 UMOL/G DIET BEGINNING 1 WK PRIOR TO CARCINOGEN TREATMENT AND CONTINUING FOR 21 WK (STUDY DURATION: 104 WK), Route [Inhibitor]: ORAL, Species: RAT, Strain/Sex: F344/MALE, Target Tissue: Type of Lesion: LIVER: ADENOMA, Dose [Carcinogen]: 1.76 MG/KG 3/WK FOR 20 WK) 12/40 (30%), 9/40 (23%), 23%, not calculated; (Carcinogen: 4-(N-NITROSOMETHYLAMINO)-1-(3-PYRIDYL)-1-BUTANONE, Dose [Inhibitor]: 0, 3 UMOL/G/DIET BEGINNING 1 WK PRIOR TO CARCINOGEN TREATMENT AND CONTINUING FOR 21 WK (STUDY DURATION: 104 WK), Route [Inhibitor]: ORAL, Species: RAT, Strain/Sex: F344/MALE, Target Tissue: Type of Lesion: LIVER: CARCINOMA, Dose [Carcinogen]: 1.76 MG/KG 3/WK FOR 20 WK) 3/40 (8%), 5/40 (13%), -62%, not calculated; (Carcinogen: 4-(N-NITROSOMETHYLAMINO)-1-(3-PYRIDYL)-1-BUTANONE, Dose [Inhibitor]: 0, 3 UMOL/G/DIET BEGINNING 1 WK PRIOR TO CARCINOGEN TREATMENT AND CONTINUING FOR 21 WK (STUDY DURATION: 104 WK), Route [Inhibitor]: ORAL, Species: RAT, Strain/Sex: F344/MALE, Target Tissue: Type of Lesion: LUNG: ADENOMA, Dose [Carcinogen]: 1.76 MG/KG 3/WK FOR 20 WK) 8/40 (20%), 5/40 (13%), 35%, not calculated; (Carcinogen: 4-(N-NITROSOMETHYLAMINO)-1-(3-PYRIDYL)-1-BUTANONE, Dose [Inhibitor]: 0, 3 UMOL/G/DIET BEGINNING 1 WK PRIOR TO CARCINOGEN TREATMENT AND CONTINUING FOR 21 WK (STUDY DURATION: 104 WK), Route [Inhibitor]: ORAL, Species: RAT, Strain/Sex: F344/MALE, Target Tissue: Type of Lesion: LUNG: CARCINOMA, Dose [Carcinogen]: 1.76 MG/KG 3/WK FOR 20 WK) 24/40 (60%), 12/40 (30%), 50%, not calculated.
